# Laboratory results taken from US9650380B2, “Difluoromethylene compound” (SATO PHARMACEUTICAL CO., LTD., priority 2012, dated 2017).
# Molecular target: T1, human URAT1 (Homo sapiens, UniProt Q96S37)
# T1 construct: Human URAT1 full-length cDNA was introduced to an expression vector pcDNA5/FRT/V5-His TOPO; expressed in transfected cells
# T1 sequence (Q96S37 1-553): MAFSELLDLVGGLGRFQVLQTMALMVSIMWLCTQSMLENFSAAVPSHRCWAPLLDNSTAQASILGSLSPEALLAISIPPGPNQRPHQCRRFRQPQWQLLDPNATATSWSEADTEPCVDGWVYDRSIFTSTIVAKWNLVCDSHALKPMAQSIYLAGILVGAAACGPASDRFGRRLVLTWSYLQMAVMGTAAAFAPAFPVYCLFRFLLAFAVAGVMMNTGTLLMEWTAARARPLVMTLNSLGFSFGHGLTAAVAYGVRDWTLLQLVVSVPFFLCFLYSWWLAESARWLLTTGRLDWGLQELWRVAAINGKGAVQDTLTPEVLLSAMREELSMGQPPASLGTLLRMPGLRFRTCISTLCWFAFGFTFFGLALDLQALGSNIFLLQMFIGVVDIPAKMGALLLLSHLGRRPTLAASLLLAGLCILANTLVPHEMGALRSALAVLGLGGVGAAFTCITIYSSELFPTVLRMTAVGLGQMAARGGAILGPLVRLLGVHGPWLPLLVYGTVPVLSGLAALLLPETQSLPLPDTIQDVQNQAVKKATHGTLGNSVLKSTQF
# Assay: Test for uric acid transport inhibition using human URAT1 expression cells
# Format: cell-based
# Settings: human URAT1 stable expression CHO cells; 14C-labeled uric acid 38 μM final; incorporation 5 minutes at room temperature; 100% window defined with benzbromarone 100 μM; read-out: URAT1 inhibitory activity (IC50)
# Description: In this Example, it was evaluated whether the Example compound and the Reference example compound mentioned below has the URAT1 inhibitory activity.
# Human URAT1 full-length cDNA was introduced to an expression vector pcDNA5/FRT/V5-His TOPO (registered trademark) (Invitrogen Corporation). The obtained expression plasmid was introduced to Chinese hamster ovary cell (hereinafter referred to as the CHO cell) by the liposome method using Lipofectamine LTX (Invitrogen) and cultured in a selection medium including hygromycin, whereby to prepare human URAT1 stable expression cell.
# The human URAT1 expression CHO cell were cultured using D-MEM/F-12 (1:1) mixed medium including 10% bovine fatal serum and hygromycin at 37° C. in the presence of 5% CO2. The cells were seeded onto a 96-well plate (Corning Incorporated) at 0.8×10^5 cells/well, and after 24 hours, the test for uric acid transport inhibition below was performed.
# The medium was removed by aspiration, and then the cells were washed once with an assay buffer including 125 mM of sodium gluconate, 4.8 mM of potassium gluconate, 1.2 mM of potassium dihydrogen phosphate, 1.2 mM of magnesium sulfate, 1.3 mM of calcium gluconate and 5.6 mM of glucose, 50 μL assay buffer including the test compound in various concentrations was added, and further 50 μL assay buffer including a radioactive ligand (uric acid labeled with ^14C; 38 μM final concentration) was added, and incorporation reaction was performed at room temperature for 5 minutes. Immediately after the completion of the reaction, the reaction mixture was washed twice with 100 μL ice-cold assay buffer, and 100 μL of 0.1N sodium hydroxide was added. The reaction mixture was stirred to lyse the cells, and 4 mL of Hionic-Fluor (Packard BioScience CO.) was added, and then the radioactivity was measured with a liquid scintillation counter (Beckman Coulter, Inc. and Packard BioScience CO).
# The radioactivitiy when each concentration of the test compound was added (uric acid incorporation activity, %) was calculated in which the difference of the radioactivity when the test compound was not added (DMSO added) and the radioactivity when a positive control compound, benzbromarone (a known URAT1 inhibitor) was added in 100 μM, was taken as 100%, and the concentration of the test compound when the uric acid incorporation activity was inhibited to 50% (IC50) was obtained.
row,IC50 [nM],SMILES
1,26,"Cc1cccc(Cl)c1Cn1nc(C)c2ccc(C(F)(F)C(=O)O)cc21 [Example 3, [1-(2-chloro-6-methylbenzyl)-3-methyl-1H-indazol-6-yl]difluoroacetic acid]"
2,17,"Cc1nn(Cc2c(Cl)cccc2C2CC2)c2cc(C(F)(F)C(=O)O)ccc12 [Example 12, [1-(2-chloro-6-cyclopropylbenzyl)-3-methyl-1H-indazol-6-yl]difluoroacetic acid]"
3,15,"O=C(O)C(F)(F)c1ccc2c(Cl)nn(Cc3c(Cl)cccc3Cl)c2c1 [Example 34, [3-chloro-1-(2,6-dichlorobenzyl)-1H-indazol-6-yl]difluoroacetic acid]"
4,107,"O=C(O)C(F)(F)c1ccc2c(C(F)(F)F)nn(Cc3c(Cl)cccc3Cl)c2c1 [Example 36, [1-(2,6-dichlorobenzyl)-3-trifluoromethyl-1H-indazol-6-yl]difluoroacetic acid]"
5,34,"Cc1nn(Cc2c(Cl)cccc2C2CC2)c2cc(C(F)(F)C(=O)O)cnc12 [Example 38, [1-(2-chloro-6-cyclopropylbenzyl)-3-methyl-1H-pyrazolo[4,3-b]pyridin-6-yl]difluoroacetic acid]"
6,243,"CCc1nn(Cc2c(F)cccc2C2CC2)c2cc(C(F)(F)C(=O)O)cnc12 [Example 46, [1-(2-cyclopropyl-6-fluorobenzyl)-3-ethyl-1H-pyrazolo[4,3-b]pyridin-6-yl]difluoroacetic acid]"
7,38,"Cc1cn(Cc2c(Cl)cccc2Cl)c2cc(C(F)(F)C(=O)O)ccc12 [Example 49, [1-(2,6-dichlorobenzyl)-3-methyl-1H-indol-6-yl]difluoroacetic acid]"
8,7,"Cc1nn(Cc2c(Cl)cccc2Cl)c2cc(C(F)(F)c3nnn[nH]3)ccc12 [Example 50, 1-(2,6-dichlorobenzyl)-6-[difluoro(1H-tetrazol-5-yl)methyl]-3-methyl-1H-indazole]"
9,6,"Cc1cccc(C#N)c1Cn1nc(C)c2ccc(C(F)(F)c3nnn[nH]3)cc21 [Example 71, 2-{6-[difluoro(1H-tetrazol-5-yl)methyl]-3-methyl-1H-indazol-1-ylmethyl}-3-methylbenzonitrile]"
10,34,"Cc1nn(Cc2ccc(C#N)cc2)c2cc(C(F)(F)c3nnn[nH]3)ccc12 [Example 88, 4-{6-[difluoro(1H-tetrazol-5-yl)methyl]-3-methyl-1H-indazol-1-ylmethyl}benzonitrile]"
11,21,"Cc1nn(Cc2c(C#N)ccnc2Cl)c2cc(C(F)(F)c3nnn[nH]3)ccc12 [Example 92, 2-chloro-3-{6-[difluoro(1H-tetrazol-5-yl)methyl]-3-methyl-1H-indazol-1-ylmethyl}isonicotinonitrile]"
12,125,"Cc1nn(Cc2cccc3ccncc23)c2cc(C(F)(F)c3nnn[nH]3)ccc12 [Example 94, 8-{6-[difluoro(1H-tetrazol-5-yl)methyl]-3-methyl-1H-indazol-1-ylmethyl}isoquinoline]"
13,9,"Cc1nn(Cc2c(F)cccc2Cl)c2cc(C(F)(F)c3n[nH]c(=O)o3)ccc12 [Example 101, 5-{[1-(2-chloro-6-fluorobenzyl)-3-methyl-1H-indazol-6-yl]difluoromethyl}-1,3,4-oxadiazol-2(3H)-one]"
14,142,"Cc1nn(S(=O)(=O)c2c(Cl)cccc2Cl)c2cc(C(F)(F)c3nnn[nH]3)ccc12 [Example 102, 1-(2,6-dichlorobenzenesulfonyl)-6-[difluoro(1H-tetrazol-5-yl)methyl]-3-methyl-1H-indazole]"
15,12,"Cc1cccc(CC#N)c1Cn1nc(C)c2ccc(C(F)(F)c3nnn[nH]3)cc21 [Example 107, (2-{6-[difluoro(1H-tetrazol-5-yl)methyl]-3-methyl-1H-indazol-1-ylmethyl}-3-methylphenyl)acetonitrile]"
16,13,"Cc1cccc(C#N)c1Cn1nc(C)c2ccc(C(F)(F)c3nnn[nH]3)nc21 [Example 109, 2-{6-[difluoro(1H-tetrazol-5-yl)methyl]-3-methyl-1H-pyrazolo[3,4-b]pyridin-1-ylmethyl}-3-methylbenzonitrile]"
